Laboratory results reported in patent publication US5525627A, “Esters of acyl carnitines with long-chain aliphatic alcohols and pharmaceutical compositions containing same having antimycotic activity” (Sigma-Tau Industrie Farmaceutiche Riunite S.p.A., priority 1992, dated 1996).
Read-outs that look alike come from different tables or passages of the source.

Key:
Candida albicans (562) = assay: MIC for yeast and yeast-like strains; assay type: cell-based; settings: 48 hours, 35° C., read-out: Minimal Inhibitory Concentration (MIC)
Procedure: (§1) The following strains were used (the number of strains is in brackets): Candida (13); Criptococcus (2); Saccharormyces (1); Torulopsis (1).
(§2) Yeast Nitrogen Base supplemented with 0.15% asparagine and 1.0% glucose (as carbon source) was the medium utilized in the assays.
(§3) This medium was buffered with 0.165 M 2-(N-morpholino) propane sulfonic acid (MOPS), a non-chelating buffer. […]
(§4) The inoculum was prepared from an overnight broth culture (a 48-hour culture only for Cryptococcus) in Sabouraud broth and appropriately diluted to yield a final suspension containing approximately 5.0×10^6 Colony Forming Units per ml (CFU/ml), when compared to the Mc Farland's standard control (BRAY W. E., Clinical Laboratory Methods, 5th Ed. C. V. MOSBY, St. Louis, Mo, 1957).
(§5) After further diluting (1:50), a […] volume of such fungal suspensions and an equal volume of the substance solutions were distributed into each well of a microtiter plate (96 wells, round bottom). Such a procedure eventually allowed for an "in vitro" antimycotic activity assay utilizing final fungal inocula of approximately 5.0×10^4 CFU/ml.

Candida albicans (Ca 2) = assay: MIC for yeast and yeast-like strains; assay type: cell-based; settings: 48 hours, 35° C., read-out: Minimal Inhibitory Concentration (MIC)
Procedure: as §1, §2, §3, §4, §5

Candida krusei (ISS 1) = assay: MIC for yeast and yeast-like strains; assay type: cell-based; settings: Pichia kudriavzevii; 48 hours, 35° C.; read-out: Minimal Inhibitory Concentration (MIC)
Procedure: as §1, §2, §3, §4, §5

[1] = tested on: Candida tropicalis (5705); assay: MIC for yeast and yeast-like strains; assay type: cell-based; settings: 48 hours, 35° C., read-out: Minimal Inhibitory Concentration (MIC)
Procedure: as §1, §2, §3, §4, §5

[2] = tested on: Saccharomyces cerevisiae (ATCC 7752); assay: MIC for yeast and yeast-like strains; assay type: cell-based; settings: ATCC7752, 48 hours, 35° C., read-out: Minimal Inhibitory Concentration (MIC)
Procedure: as §1, §2, §3, §4, §5

yeast-like fungi = assay: MIC / MFC for yeast-like fungi, all strains; assay type: cell-based, Candida, Cryptococcus, Saccharomyces, Torulopsis; settings: read-out: Mean MIC values
Procedure: as §1, §2, §3, §4, §5
The minimal fungicidal concentration was evaluated by spot-transferring onto Petri dishes, containing Sabouraud agar, 0.01-ml volumes of all the samples showing no visible fungal growth.

[3] = tested on: Aspergillus fumigatus (ATCC 28212); assay: MIC for filamentous fungi; assay type: cell-based; settings: ATCC28212, read-out: Minimal Inhibitory Concentration (MIC)
Source text: (§6) The following strains were used (the number of strains is in brackets): Aspergillus (5); Fusarium (1); Mucor (1); Penicillium (1).
(§7) The tested substances were: ST 712, ST 722, ST 982, ST 983, ST 1000, ST 1001, ST 1032, ST 1033, ST 1034, ST 1036, ST 1037, ST 1038, ST 1050, ST 1051, ST 1052, ST 1053. The assay medium was the same as the one used in the previous study. The conidia from 72-hour cultures in Sabouraud agar, collected by washing with Sabouraud medium and Tween 80 (one drop of Tween per 10 ml of medium), were utilized as inoculum (5.0×10^4 CFU/ml).
(§8) The assay was performed using the same procedure as described for yeast-like fungi.
(§9) Also the evaluation of MIC and MFC was as reported previously.

[4] = tested on: Aspergillus niger (ATCC 16404); assay: MIC for filamentous fungi; assay type: cell-based; settings: ATCC16404, read-out: Minimal Inhibitory Concentration (MIC)
Source text: as §6, §7, §8, §9

Fusarium sp. (ISS 1) = assay: MIC for filamentous fungi; assay type: cell-based; settings: read-out: Minimal Inhibitory Concentration (MIC)
Source text: as §6, §7, §8, §9

Mucor mucedo (ATCC 7941) = assay: MIC for filamentous fungi; assay type: cell-based; settings: ATCC7941, read-out: Minimal Inhibitory Concentration (MIC)
Source text: as §6, §7, §8, §9

Penicillium sp. (1302) = assay: MIC for filamentous fungi; assay type: cell-based; settings: read-out: Minimal Inhibitory Concentration (MIC)
Source text: as §6, §7, §8, §9

filamentous fungi = assay: MIC / MFC for filamentous fungi, all strains; assay type: cell-based, Aspergillus, Fusarium, Mucor, Penicillium; settings: read-out: Mean MIC values
Source text: as §6, §7, §8, §9

[5] = tested on: Epidermophyton floccosum (IHEM 3495); assay: MIC for dermatophytic fungi; assay type: cell-based; settings: 35° C., 96 hours, read-out: Minimal Inhibitory Concentration (MIC)
Procedure: (§10) The following strains were used: Trichophyton menthagrophytes ATCC 9533, Trichophyton rubrum IHEM 4274, Microsporum canis IHEM 3522, Epydermophyton floccosum IHEM 3495. The tested substances were: ST 722, ST 1033, ST 1037, ST 1050, ST 1051, ST 1052,. ST 1053.
(§11) The assay was performed following the same procedure described for the yeasts, by using 7-day fungi cultures grown at 30° C. in Potato Dextrose agar, and harvested with Sabouraud broth and Tween 80 (0.5%).
(§12) After washing with Yeast Nitrogen Base, supplemented with asparagine and glucose (as carbon source), the fungal suspension was fragmented using a tissue grinder until the largest clumps or aggregates were undetectable within the grinder. This fungal suspension was then appropriately diluted in YNB to yield a concentration of 2.0×10^5 infective particles/ml (small mycelium fragments, micro-and macroaleuriospores).
(§13) Volumes of 100 μl both of the fungal suspensions and substance solutions, two-fold serially diluted in assay medium, were distributed into each well of a microtiter plate (96 wells, round bottom), which was incubated at 35° C. for 96 hours.

[6] = tested on: Microsporum canis (IHEM 3522); assay: MIC for dermatophytic fungi; assay type: cell-based; settings: 35° C., 96 hours, read-out: Minimal Inhibitory Concentration (MIC)
Procedure: as §10, §11, §12, §13

[7] = tested on: Trichophyton menthagrophites (ATCC 9533); assay: MIC for dermatophytic fungi; assay type: cell-based; settings: ATCC9533, 35° C., 96 hours, read-out: Minimal Inhibitory Concentration (MIC)
Procedure: as §10, §11, §12, §13

[8] = tested on: Trichophyton rubrum (IHEM 4274); assay: MIC for dermatophytic fungi; assay type: cell-based; settings: 35° C., 96 hours, read-out: Minimal Inhibitory Concentration (MIC)
Procedure: as §10, §11, §12, §13

dermatophytic fungi = assay: MIC / MFC for dermatophytic fungi, all strains; assay type: cell-based, Trichophyton, Microsporum, Epidermophyton; settings: versus susceptible strains
Procedure: as §10, §11, §12, §13

Candida albicans (A 54) = assay: MIC for yeast and yeast-like strains; assay type: cell-based; settings: 48 hours, 35° C., read-out: Minimal Inhibitory Concentration (MIC)
Procedure: as §1, §2, §3, §4, §5

[9] = tested on: Cryptococcus neoformans (4711); assay: MIC for yeast and yeast-like strains; assay type: cell-based; settings: 48 hours, 35° C., read-out: Minimal Inhibitory Concentration (MIC)
Procedure: as §1, §2, §3, §4, §5

[10] = tested on: Torulopsis candida (D.S.); assay: MIC for yeast and yeast-like strains; assay type: cell-based; settings: Suzukiozyma candida; 48 hours, 35° C.; read-out: Minimal Inhibitory Concentration (MIC)
Procedure: as §1, §2, §3, §4, §5

Compound	MIC (Candida albicans (562))	MIC (Candida albicans (Ca 2))	MIC (Candida krusei (ISS 1))	MIC [1]	MIC [2]	MIC (yeast-like fungi; versus susceptible strains)	MIC [3]	MIC [4]	MIC (Fusarium sp. (ISS 1))	MIC (Mucor mucedo (ATCC 7941))	MIC (Penicillium sp. (1302))	MIC (filamentous fungi; versus susceptible strains)	MIC [5]	MIC [6]	MIC [7]	MIC [8]	MIC (dermatophytic fungi)	also measured
CCCCCCCCCCCCCOC(=O)C[C@H](C[N+](C)(C)C)OC(=O)CCCCC [ST 1052]	3.12 µg/mL	1.56 µg/mL	3.12 µg/mL	3.12 µg/mL	3.12 µg/mL	2.8 µg/mL	3.12 µg/mL	3.12 µg/mL	6.25 µg/mL	6.25 µg/mL	3.12 µg/mL	4.37 µg/mL	25 µg/mL	6.25 µg/mL	12.5 µg/mL	6.25 µg/mL	12.5 µg/mL	
CCCCCCCCCCCOC(=O)C[C@H](C[N+](C)(C)C)OC(=O)CCCCCCCCCC [ST 982]		> 100 µg/mL		> 100 µg/mL			> 100 µg/mL	> 100 µg/mL	> 100 µg/mL	> 100 µg/mL	> 100 µg/mL							MIC (Candida albicans (A 54)): > 100 µg/mL; MIC [9]: > 100 µg/mL; MIC [10]: > 100 µg/mL; MIC (yeast-like fungi): > 100 µg/mL; MIC (filamentous fungi): > 100 µg/mL
CCCCCCCCCCCCCOC(=O)C[C@H](C[N+](C)(C)C)OC(=O)CCCCCC [ST 1050]	6.25 µg/mL	3.12 µg/mL	3.12 µg/mL	6.25 µg/mL	3.12 µg/mL	4.37 µg/mL	6.25 µg/mL	6.25 µg/mL	6.25 µg/mL	12.5 µg/mL	3.12 µg/mL	6.85 µg/mL	50 µg/mL	12.5 µg/mL	12.5 µg/mL	6.25 µg/mL	20.3 µg/mL	
CCCCCCCCCCCCCOC(=O)C[C@H](C[N+](C)(C)C)OC(=O)CCCCCCC [ST 1053]	12.5 µg/mL	3.12 µg/mL	3.12 µg/mL	6.25 µg/mL	3.12 µg/mL	5.62 µg/mL	6.25 µg/mL	3.12 µg/mL	6.25 µg/mL	12.5 µg/mL	3.12 µg/mL	6.24 µg/mL	50 µg/mL	6.25 µg/mL	6.25 µg/mL	6.25 µg/mL	14.1 µg/mL	
